Each structure is given as a SMILES string. Structures can show the parent of a compound that is named as a salt.

28 compounds from patent US20070275960A1, “Phenyl and pyridyl compounds for inflammation and immune-related uses” (Synta Pharmaceuticals Corp., priority 2006, published 2007) can be followed below.

One test has as its system IL-2 production. The test is described as follows: Inhibition of IL-2 production in PHA-activated Jurkat cells (ELISA). The following applies: Homo sapiens, Jurkat, 20 h, PHA 2.5 μg/mL, 20 hours at 37° C., IL-2 by ELISA. It counts as cell-based. How it is done:
Jurkat cells were placed in a 96 well plate (0.5 million cells per well in 1% FBS medium) then a test compound of this invention was added at different concentrations. After 10 minutes, the cells were activated with PHA (final concentration 2.5 μg/mL) and incubated for 20 hours at 37° C. under CO2. The final volume was 200 μL. Following incubation, the cells were centrifuged and the supernatants collected and stored at −70° C. prior to assaying for IL-2 production. A commercial ELISA kit (IL-2 Eli-pair, Diaclone Research, Besancon, France) was used to detect production of IL-2, from which dose response curves were obtained. The IC50 value was calculated as the concentration at which 50% of maximum IL-2 production after stimulation was inhibited versus a non-stimulation control.
(In an ELISA, binding on a coated surface is turned into a signal by an enzyme label.)
As for `COC(=O)c1cc(-c2ccc(NC(=O)c3c(F)cccc3F)cc2)c(C)s1` [Compound 1, 4-[4-(2,6-Difluoro-benzoylamino)-phenyl]-5-methyl-thiophene-2-carboxylic acid methyl ester], the half-inhibitory concentration (IC50) (commonly the concentration that gives 50% inhibition) worked out at 1 nM.
Still for that read-out and setting: under `COC(=O)c1cc(-c2ccc(NC(=O)c3ccncc3C)cc2)c(C)s1` [Compound 2, 5-Methyl-4-{4-[(3-methyl-pyridine-4-carbonyl)-amino]-phenyl}-thiophene-2-carboxylic acid methyl ester] stands 3 nM; under `Cc1sc(-c2cnco2)cc1-c1ccc(NC(=O)c2c(F)cccc2F)cc1` [Compound 3, 2,6-Difluoro-N-[4-(2-methyl-5-oxazol-5-yl-thiophen-3-yl)-phenyl]-benzamide], 3 nM; under `COC(=O)c1cc(C)c(-c2ccc(NC(=O)c3c(F)cccc3F)cc2)s1` [Compound 4, 5-[4-(2,6-Difluoro-benzoylamino)-phenyl]-4-methyl-thiophene-2-carboxylic acid methyl ester], 1 nM.
The same measure, in the same setting: as for `COC(=O)c1cc(-c2ccc(NC(=O)c3c(F)cccc3F)cc2)c(C)o1` [Compound 8, 4-[4-(2,6-Difluoro-benzoylamino)-phenyl]-5-methyl-furan-2-carboxylic acid methyl ester], the figure is 7 nM; as for `Cc1nc(N2CCOCC2)sc1-c1ccc(NC(=O)c2c(F)cccc2F)cc1` [Compound 9, 2,6-Difluoro-N-[4-(4-methyl-2-morpholin-4-yl-thiazol-5-yl)-phenyl]-benzamide], 106 nM; as for `Cc1cnccc1C(=O)Nc1ccc(-c2sc(N3CCOCC3)nc2C)cc1` [Compound 10, 3-Methyl-N-[4-(4-methyl-2-morpholin-4-yl-thiazol-5-yl)-phenyl]-isonicotinamide], 237 nM.
With `Cc1cc(-c2ncco2)sc1-c1ccc(NC(=O)c2c(F)cccc2F)cc1` [Compound 39, 2,6-Difluoro-N-[4-(3-methyl-5-oxazol-2-yl-thiophen-2-yl)-phenyl]-benzamide], the IC50 amounted to 1 nM.
For `Cc1cc(NC(=O)c2c(F)cccc2F)ccc1-c1nc(C(F)(F)F)cs1` [Compound 91, 2,6-Difluoro-N-[3-methyl-4-(4-trifluoromethyl-thiazole-2-yl)-phenyl]-benzamide], the IC50 is > 1000 nM.
`Cc1cc(-c2ncco2)sc1-c1ccc(NC(=O)c2snnc2C)cc1` [Compound 92, 4-Methyl-[1,2,3]thiadiazole-5-carboxylic acid [4-(3-methyl-5-oxazol-2-yl-thiophen-2-yl)-phenyl]-amide]: the IC50 was 4 nM.
On the same count and under the same terms, as for `Cc1cnccc1C(=O)Nc1ccc(-c2sc(-c3ncco3)cc2C)cc1` [Compound 93, 3-Methyl-N-[4-(3-methyl-5-oxazol-2-yl-thiophen-2-yl)-phenyl]-isonicotinamide], the figure is 3 nM.
On the same count and under the same terms, as for `Cc1cnccc1C(=O)Nc1ccc(-c2sc(-c3ccno3)cc2C)cc1` [Compound 94, 3-Methyl-N-[4-(3-methyl-5-isoxazol-5-yl-thiophen-2-yl)-phenyl]-isonicotinamide], the figure is 5.2 nM; as for `Cc1cnccc1C(=O)Nc1ccc(-c2sc(-c3cccnc3)cc2C)cc1` [Compound 96, 3-Methyl-N-[4-(3-methyl-5-pyridin-3-yl-thiophen-2-yl)-phenyl]-isonicotinamide], 2.1 nM.
In turn, `Cc1cnccc1C(=O)Nc1ccc(-c2sc(-c3cncnc3)cc2C)cc1` [Compound 97, 3-Methyl-N-[4-(3-methyl-5-pyrimidin-5-yl-thiophen-2-yl)-phenyl]-isonicotinamide] showed an IC50 of 7.2 nM. This IC50 is about 3.4-fold higher than that of the compound before.
In the case of `Cc1cc(-c2cncnc2)sc1-c1ccc(NC(=O)c2snnc2C)cc1` [Compound 98, 4-Methyl-[1,2,3]thiadiazole-5-carboxylic acid [4-(3-methyl-5-pyrimidin-5-yl-thiophen-2-yl)-phenyl]-amide], the IC50 was 9.3 nM. This IC50 and that of the compound before are within 1.5-fold of each other.
On the same count and under the same terms, under `Cc1cc(-c2ccncc2)sc1-c1ccc(NC(=O)c2snnc2C)cc1` [Compound 99, 4-Methyl-[1,2,3]thiadiazole-5-carboxylic acid [4-(3-methyl-5-pyridin-4-yl-thiophen-2-yl)-phenyl]-amide, hydrochloride] stands 5.2 nM.
In the case of `Cc1cnccc1C(=O)Nc1ccc(-c2sc(-c3ccncc3)cc2C)cc1` [Compound 101], the IC50 came to 4 nM.
As for `Cc1cc(-c2ccno2)sc1-c1ccc(NC(=O)c2cnns2)cc1` [Compound 102, [1,2,3]thiadiazole-5-carboxylic acid [4-(3-methyl-5-isoxazol-5-yl-thiophen-2-yl)-phenyl]-amide], half-maximal inhibition (IC50) required 22 nM.
On the same count and under the same terms, under `Cc1cc(-c2ccno2)sc1-c1ccc(NC(=O)c2cccn2C)cc1` [Compound 103, 1-Methyl-1H-pyrrol-2-carboxylic acid [4-(3-methyl-5-isoxazol-5-yl-thiophen-2-yl)-phenyl]-amide] stands 3 nM; under `Cc1cc(-c2ccno2)sc1-c1ccc(NC(=O)c2ccnn2C)cc1` [Compound 104, 1-Methyl-1H-pyrazol-5-carboxylic acid [4-(3-methyl-5-isoxazol-5-yl-thiophen-2-yl)-phenyl]-amide], > 1000 nM; under `Cc1cc(-c2ccno2)sc1-c1ccc(NC(=O)c2cnsc2)cc1` [Compound 105, Isothiazol-4-carboxylic acid [4-(3-methyl-5-isoxazol-5-yl-thiophen-2-yl)-phenyl]-amide], 7.6 nM.
On the same count and under the same terms, under `Cc1cc(-c2ccno2)sc1-c1ccc(NC(=O)c2csnn2)cc1` [Compound 106, [1,2,3]thiadiazol-4-carboxylic acid [4-(3-methyl-5-isoxazol-5-yl-thiophen-2-yl)-phenyl]-amide] stands 83.8 nM; under `Cc1cncnc1C(=O)Nc1ccc(-c2sc(-c3ccno3)cc2C)cc1` [Compound 107, 5-Methyl-pyrimidine-4-carboxylic acid [4-(3-methyl-5-isoxazol-5-yl-thiophen-2-yl)-phenyl]-amide], 2.8 nM; under `Cc1cc(-c2cnco2)sc1-c1ccc(NC(=O)c2scnc2Cl)cc1` [Compound 110, 4-Chloro-thiazol-5-carboxylic acid [4-(3-methyl-5-oxazol-5-yl-thiophen-2-yl)-phenyl]-amide], 7.5 nM.
`Cc1cnccc1C(=O)Nc1ccc(-c2sc(-c3nccs3)cc2C)cc1` [Compound 111, 3-Methyl-N-[4-(3-methyl-5-thiazol-2-yl-thiophen-2-yl)-phenyl]-isonicotinamide] gave an IC50 of 8.7 nM. The IC50 values of the last two compounds are within 1.5-fold of each other.

The test is the same for the next values; noted with them: PHA 2.5 μg/mL, 20 hours at 37° C., IL-2 by ELISA.
`Cc1cnccc1C(=O)Nc1ccc(-c2sc(-c3ncco3)cc2C)cc1` [Compound 109, 3-Methyl-N-[4-(3-methyl-5-oxazol-2-yl-thiophen-2-yl)-phenyl]-isonicotinamide]: 2.7 nM corresponded to half-maximal inhibition (IC50). This counts as single-digit nanomolar.

The test is the same for the next values; noted with them: PHA 2.5 μg/mL, 20 hours at 37° C., IL-2 by ELISA, hydrochloride.
Take `Cc1cnccc1C(=O)Nc1ccc(-c2sc(-c3ccno3)cc2C)cc1` [Compound 95, 3-Methyl-N-[4-(3-methyl-5-isoxazol-5-yl-thiophen-2-yl)-phenyl]-isonicotinamide, hydrochloride]: the IC50 is 4.4 nM.
Same read-out and setting: under `Cc1cc(-c2ccccn2)sc1-c1ccc(NC(=O)c2snnc2C)cc1` [Compound 100, 4-Methyl-[1,2,3]thiadiazole-5-carboxylic acid [4-(3-methyl-5-pyridin-2-yl-thiophen-2-yl)-phenyl]-amide, hydrochloride] stands 10.5 nM.
